Laboratory results reported in patent US5140009A (Tap Pharmaceuticals, Inc., priority 1990, dated 1992).
Square brackets hold non-standard residues; d marks the D form. Peptide text beside a SMILES is read from it. * marks the point of attachment. Propanoyl(3-indol-3-yl) = O=C(CCc1c[nH]c2ccccc12)*; Butyryl(4-indol-3-yl) = O=C(CCCc1c[nH]c2ccccc12)*; Propanoyl(3,3-Ph2) = O=C(CC(c1ccccc1)c1ccccc1)*; Acetyl(1-naphthyl) = O=C(Cc1cccc2ccccc12)*; Acetyl(2-naphthyl) = O=C(Cc1ccc2ccccc2c1)*; Acetyl(3-pyridyl) = O=C(Cc1cccnc1)*; 1Naphthoyl = O=C(c1cccc2ccccc12)*; dCha = N[C@H](CC1CCCCC1)C(=O)O; X14 = O=C(CCn1ccc2ccccc21)*; X1 = COc1ccccc1C=CC(=O)*; PhAc = O=C(Cc1ccccc1)*; X2 = O=C(C=Cc1ccccc1)*; Bn = c1ccc(C*)cc1

target: T1, LHRH receptors (Rattus norvegicus, UniProt P30969); assay: Receptor Binding (radioligand receptor binding assay); conditions: Receptor Binding pkI, table 3; rat pituitary membranes, radioiodinated [D-Leu^6 -des Gly^10 ]-LHRH ethyl amide 50 pM, 2 hours at 4° C.
T1 construct: Pituitary membranes containing LHRH receptors are prepared in batches from quick-frozen rat pituitaries; tissue Hilltop Labs; host or cells: rat pituitary membranes
T1 sequence (P30969 1-327): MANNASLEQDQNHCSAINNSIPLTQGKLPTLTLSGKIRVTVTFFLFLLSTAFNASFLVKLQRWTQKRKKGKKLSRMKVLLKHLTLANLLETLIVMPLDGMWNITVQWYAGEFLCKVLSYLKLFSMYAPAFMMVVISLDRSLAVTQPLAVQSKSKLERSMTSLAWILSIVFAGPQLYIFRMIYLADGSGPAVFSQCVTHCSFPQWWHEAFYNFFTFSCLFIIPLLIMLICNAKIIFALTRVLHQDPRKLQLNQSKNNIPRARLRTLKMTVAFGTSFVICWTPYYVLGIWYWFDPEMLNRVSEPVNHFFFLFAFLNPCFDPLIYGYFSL

| SMILES | Ki |
| --- | --- |
| CCNC(=O)[C@@H]1CCCN1C(=O)[C@H](CCCNC(=N)N)NC(=O)[C@H](CC(C)C)NC(=O)[C@@H](Cc1c[nH]c2ccccc12)NC(=O)[C@H](Cc1ccc(O)cc1)NC(=O)[C@H](CO)NC(=O)CC(c1ccccc1)c1ccccc1 [Compound 14, (4-9)[N-(3-Diphenylpropionyl)-Ser^4 -D-Trp^6 -Pro^9 -NHEt]LHRH] ({Propanoyl(3,3-Ph2)}-SY[dW]LRP-NHEt) | 15.8 nM |

same assay, conditions: table 3; rat pituitary membranes, radioiodinated [D-Leu^6 -des Gly^10 ]-LHRH ethyl amide 50 pM, 2 hours at 4° C.; read-out: Receptor Binding pkI (converted)

| SMILES | Ki |
| --- | --- |
| CCNC(=O)[C@@H]1CCCN1C(=O)[C@H](CCCNC(=N)N)NC(=O)[C@H](CC(C)C)NC(=O)[C@@H](Cc1c[nH]c2ccccc12)NC(=O)[C@H](Cc1ccc(O)cc1)NC(=O)[C@H](CO)NC(=O)[C@H](Cc1c[nH]c2ccccc12)NC(=O)C(CC(=O)N1CCOCC1)Cc1cccc2ccccc12 (single isomer, unassigned) [Compound 130] | 0.275 nM |
| CCNC(=O)[C@@H]1CCCN1C(=O)[C@H](CCCNC(=N)N)NC(=O)[C@H](CC(C)C)NC(=O)[C@@H](Cc1c[nH]c2ccccc12)NC(=O)[C@H](Cc1ccc(O)cc1)NC(=O)[C@H](CO)NC(=O)[C@H](Cc1c[nH]c2ccccc12)NC(=O)C(CC(=O)N1CCOCC1)Cc1cccc2ccccc12 (single isomer, unassigned) [Compound 131] | 0.631 nM |
| CCNC(=O)[C@@H]1CCCN1C(=O)[C@H](CCCNC(=N)N)NC(=O)[C@H](CC(C)C)NC(=O)[C@@H](Cc1c[nH]c2ccccc12)NC(=O)[C@H](Cc1ccc(O)cc1)NC(=O)[C@H](COCc1ccccc1)NC(=O)Cc1ccc2ccccc2c1 [Compound 12, (4-9)[N-(2-Naphthylacetyl)-Ser^4 (OBzl)-D-Trp^6 -Pro^9 -NHEt]LHRH] ({Acetyl(2-naphthyl)}-S(Bn)Y[dW]LRP-NHEt) | 1.23 nM |
| CCNC(=O)[C@@H]1CCCN1C(=O)[C@H](CCCNC(=N)N)NC(=O)[C@H](CC(C)C)NC(=O)[C@@H](CC1CCCCC1)NC(=O)[C@H](Cc1ccc(O)cc1)NC(=O)[C@H](COCc1ccccc1)NC(=O)Cc1cccc2ccccc12 [Compound 33, (4-9)[N-(1-Naphthylacetyl)-Ser^4 (OBzl)-D-Cha^6 -Pro^9 -NHEt]LHRH] ({Acetyl(1-naphthyl)}-S(Bn)Y[dCha]LRP-NHEt) | 13.8 nM |
| CCNC(=O)[C@@H]1CCCN1C(=O)[C@H](CCCNC(=N)N)NC(=O)[C@H](CC(C)C)NC(=O)[C@@H](CC1CCCCC1)NC(=O)[C@H](Cc1ccc(O)cc1)NC(=O)[C@H](CO)NC(=O)CCn1ccc2ccccc21 [Compound 34, (4-9)[N-(3-(1-Indole)propionyl)-Ser^4 -D-Cha^6 -Pro^9 -NHEt]LHRH] (X14-SY[dCha]LRP-NHEt) | 41.7 nM |
| CCNC(=O)[C@@H]1CCCN1C(=O)[C@H](CCCNC(=N)N)NC(=O)[C@H](CC(C)C)NC(=O)[C@@H](CC1CCCCC1)NC(=O)[C@H](Cc1ccc(O)cc1)NC(=O)[C@H](CO)NC(=O)CCCc1c[nH]c2ccccc12 [Compound 36, (4-9)[N-(4-(3-Indole)butyryl)-Ser^4 -D-Cha^6 -Pro^9 -NHEt]LHRH] ({Butyryl(4-indol-3-yl)}-SY[dCha]LRP-NHEt) | 17 nM |
| CCNC(=O)[C@@H]1CCCN1C(=O)[C@H](CCCNC(=N)N)NC(=O)[C@H](CC(C)C)NC(=O)[C@@H](CCCNC(=N)N)NC(=O)[C@H](Cc1ccc(O)cc1)NC(=O)[C@H](CO)NC(=O)Cc1cccc2ccccc12 [Compound 37, (4-9)[N-(1-Naphthylacetyl)-Ser^4 -D-Arg^6 -Pro^9 -NHEt] LHRH] ({Acetyl(1-naphthyl)}-SY[dR]LRP-NHEt) | 20.4 nM |
| CCNC(=O)[C@@H]1CCCN1C(=O)[C@H](CCCNC(=N)N)NC(=O)[C@H](CC(C)C)NC(=O)[C@@H](CCCNC(=N)N)NC(=O)[C@H](Cc1ccc(O)cc1)NC(=O)[C@H](COCc1ccccc1)NC(=O)Cc1cccc2ccccc12 [Compound 38, (4-9)[N-(1-Naphthylacetyl)-Ser^4 (OBzl)-D-Arg^6 -Pro^9 -NHEt]LHRH] ({Acetyl(1-naphthyl)}-S(Bn)Y[dR]LRP-NHEt) | 28.8 nM |
| CCNC(=O)[C@@H]1CCCN1C(=O)[C@H](CCCNC(=N)N)NC(=O)[C@H](CC(C)C)NC(=O)[C@@H](CCCNC(=N)N)NC(=O)[C@H](Cc1ccc(O)cc1)NC(=O)[C@H](CO)NC(=O)c1cccc2ccccc12 [Compound 39, (4-9)[N-(1-Naphthoyl)-Ser^4 -D Arg^6 -Pro^9 -NHEt] LHRH] (1Naphthoyl-SY[dR]LRP-NHEt) | 117 nM |
| CCNC(=O)[C@@H]1CCCN1C(=O)[C@H](CCCNC(=N)N)NC(=O)[C@H](CC(C)C)NC(=O)[C@@H](CC(C)C)NC(=O)[C@H](Cc1ccc(O)cc1)NC(=O)[C@H](CO)NC(=O)Cc1cccnc1 [Compound 40, (4-9)[N-(3-Pyridylacetyl)-Ser4-D-Leu^6 -Pro^9 -NHEt] LHRH] ({Acetyl(3-pyridyl)}-SY[dL]LRP-NHEt) | 4370 nM |

Now from value to compound:

| Ki | SMILES |
| --- | --- |
| 0.295 nM | CCNC(=O)[C@@H]1CCCN1C(=O)[C@H](CCCNC(=N)N)NC(=O)[C@H](CC(C)C)NC(=O)[C@@H](Cc1c[nH]c2ccccc12)NC(=O)[C@H](Cc1ccc(O)cc1)NC(=O)[C@H](CO)NC(=O)C(Cc1cccc2ccccc12)NC(C)=O (single isomer, unassigned) [Compound 82, (3-9)[N-Ac-1-Nal^3 -D-Trp^6 -Pro^9 NHEt]LHRH] |
| 0.123 nM | CCNC(=O)[C@@H]1CCCN1C(=O)[C@H](CCCNC(=N)N)NC(=O)[C@H](CC(C)C)NC(=O)[C@@H](Cc1c[nH]c2ccccc12)NC(=O)[C@H](Cc1ccc(O)cc1)NC(=O)[C@H](CO)NC(=O)C(Cc1cccc2ccccc12)NC(C)=O (single isomer, unassigned) [Compound 83, (3-9) [N-Ac-1-Nal^3 -D-Trp^6 -Pro^9 NHEt]LHRH] |
| 7.76 nM | CCNC(=O)[C@@H]1CCCN1C(=O)[C@H](CCCNC(=N)N)NC(=O)[C@H](CC(C)C)NC(=O)[C@@H](Cc1c[nH]c2ccccc12)NC(=O)[C@H](Cc1ccc(O)cc1)NC(=O)[C@H](CO)NC(=O)C=Cc1ccccc1 [Compound 15, (4-9)[N-(cinnamoyl)-Ser^4 -D-Trp^6 -Pro^9 -NHEt] LHRH] (X2-SY[dW]LRP-NHEt) |
| 1.41 nM | CCNC(=O)[C@@H]1CCCN1C(=O)[C@H](CCCNC(=N)N)NC(=O)[C@H](CC(C)C)NC(=O)[C@@H](Cc1c[nH]c2ccccc12)NC(=O)[C@H](Cc1ccc(O)cc1)NC(=O)[C@H](CO)NC(=O)C=Cc1ccccc1OC [Compound 16, (4-9)[N-(ortho-Methoxycinnamoyl)-Ser^4 -D-Trp^6 -Pro^9 -NHEt]LHRH] (X1-SY[dW]LRP-NHEt) |
| 6.61 nM | CCNC(=O)[C@@H]1CCCN1C(=O)[C@H](CCCNC(=N)N)NC(=O)[C@H](CC(C)C)NC(=O)[C@@H](Cc1c[nH]c2ccccc12)NC(=O)[C@H](Cc1ccc(O)cc1)NC(=O)[C@H](CO)NC(=O)Cc1ccccc1 [Compound 17, (4-9)[N-(Phenylacetyl)-Ser^4 -D-Trp^6 -Pro^9-NHEt] LHRH] (PhAc-SY[dW]LRP-NHEt) |
| 3.72 nM | CCNC(=O)[C@@H]1CCCN1C(=O)[C@H](CCCN=C(N)N)NC(=O)[C@H](CC(C)C)NC(=O)[C@@H](Cc1c[nH]c2ccccc12)NC(=O)[C@H](Cc1ccc(O)cc1)NC(=O)[C@H](CO)NC(=O)CCc1c[nH]c2ccccc12 [Compound 24, (4-9)[N-(3-(3-Indole)propionyl)-Ser^4 -D-Trp^6 -Pro^9 -NHEt] LHRH] ({Propanoyl(3-indol-3-yl)}-SY[dW]LRP-NHEt) |
| 204 nM | CCNC(=O)[C@@H]1CCCN1C(=O)[C@H](CCCNC(=N)N)NC(=O)[C@H](CC(C)C)NC(=O)[C@@H](CCCNC(=N)N)NC(=O)[C@H](Cc1ccc(O)cc1)NC(=O)[C@H](CO)NC(=O)CCc1c[nH]c2ccccc12 [Compound 35, (4-9)[N-(3-(3-Indole)propionyl)-Ser^4 -D-Arg^6 -Pro^9 -NHEt]LHRH] ({Propanoyl(3-indol-3-yl)}-SY[dR]LRP-NHEt) |
